# Source: patent publication US7772251B2, “N-sulphonylated amino acid derivatives, method for the production and use thereof” (The Medicines Company (Leipzig) GmbH, priority 2003, dated 2010)
# Target: T1, matriptase (Homo sapiens, UniProt Q9Y5Y6)
# T1 construct: Met-Lys-(His)6 (N, cleaved yes); made in house; host or cells: Escherichia coli BL21 (DE3), vector pET24
# T1 sequence (Q9Y5Y6 615-854 limits assumed): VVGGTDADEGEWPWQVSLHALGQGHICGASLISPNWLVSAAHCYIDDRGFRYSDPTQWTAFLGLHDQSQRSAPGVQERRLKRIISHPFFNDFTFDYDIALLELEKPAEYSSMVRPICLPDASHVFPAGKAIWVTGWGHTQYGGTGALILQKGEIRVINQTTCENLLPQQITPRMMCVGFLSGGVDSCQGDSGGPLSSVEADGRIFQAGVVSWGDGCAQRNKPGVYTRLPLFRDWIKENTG
# Assay: Determination of Ki values for the inhibition of matriptase (chromogenic substrate CH3SO2-D-HHT-Gly-Arg-pNA)
# Type: biochemical
# Conditions: 25° C, pH 8.0, Dixon method, average of three determinations
# Description: Preparation of the Catalytic Domain of Matriptase
# The steps were in detail:
# Activation: Since a correctly processed N terminus is a precondition for the activity of serine proteases, it was necessary to delete the peptide MK(His)6 to activate the refolded matriptase. For this purpose, the refolding mixture was incubated with 2.5 mU per 50 μg of protein of activated DAPase™ (Qiagen) at 30° C. for 2 h, and the activated matriptase was separated from the non-activated matriptase and the DAPase by metal chelate chromatography.
# The proteolytic activity was detected by cleavage of the chromogenic substrate Pefachrome tPA (Pentapharm).
row,Ki [nM],Compound
1,21000,N=C(N)c1cccc(CC(NC(=O)CNS(=O)(=O)c2ccc3ccccc3c2)C(=O)N2CCC(CCN)CC2)c1 (stereo not drawn) [Compound 44]
2,140,N=C(N)c1cccc(CC(NS(=O)(=O)c2ccc(C3CCCCC3)cc2)C(=O)N2CCC(CCN)CC2)c1 (stereo not drawn) [Compound 45]
3,3900,N=C(N)c1cccc(CC(NC(=O)CNS(=O)(=O)c2ccc3ccccc3c2)C(=O)N2CCC(C(=O)NCCCNC(=O)OCc3ccccc3)CC2)c1 (stereo not drawn) [Compound 47]
4,360,N=C(N)c1cccc(CC(NC(=O)CNS(=O)(=O)c2ccc3ccccc3c2)C(=O)N2CCC(C(=O)NCCCN)CC2)c1 (stereo not drawn) [Compound 48]
5,160,N=C(N)CCNC(=O)C1CCN(C(=O)C(Cc2cccc(C(=N)N)c2)NC(=O)CNS(=O)(=O)c2ccc3ccccc3c2)CC1 (stereo not drawn) [Compound 49]
6,3500,N=C(N)c1cccc(CC(NC(=O)CNS(=O)(=O)c2ccc(S(=O)(=O)N3CCOCC3)cc2)C(=O)N2CCN(C(=O)CCN)CC2)c1 (stereo not drawn) [Compound 50]
7,890,N=C(N)NCCC(=O)N1CCN(C(=O)C(Cc2cccc(C(=N)N)c2)NC(=O)CNS(=O)(=O)c2ccc(S(=O)(=O)N3CCOCC3)cc2)CC1 (stereo not drawn) [Compound 51]
8,32,N=C(N)c1cccc(CC(NS(=O)(=O)c2ccc(C3CCCCC3)cc2)C(=O)N2CCC(C(=O)N3CCN(C(=N)N)CC3)CC2)c1 (stereo not drawn) [Compound 54]
9,980,N=C(N)c1cccc(CC(NS(=O)(=O)c2ccc(C3CCCCC3)cc2)C(=O)N2CCN(C(=N)N)CC2)c1 (stereo not drawn) [Compound 55]
10,550,N=C(N)c1cccc(CC(NS(=O)(=O)c2ccc(C3CCCCC3)cc2)C(=O)N2CCNCC2)c1 (stereo not drawn) [Compound 58]
11,310,N=C(N)c1cccc(CC(NS(=O)(=O)c2ccc(C3CCCCC3)cc2)C(=O)N2CCN(C(=O)C3CCNCC3)CC2)c1 (stereo not drawn) [Compound 60]
12,380,N=C(N)CC(=O)N1CCN(C(=O)C(Cc2cccc(C(=N)N)c2)NS(=O)(=O)c2ccc(C3CCCCC3)cc2)CC1 (stereo not drawn) [Compound 61]
13,1100,N=C(N)CC(=O)N1CCN(C(=O)C(Cc2cccc(C(=N)N)c2)NS(=O)(=O)c2ccc3ccccc3c2)CC1 (stereo not drawn) [Compound 62]
14,830,CC(C)c1cc(C(C)C)c(S(=O)(=O)NC(Cc2cccc(C(=N)N)c2)C(=O)N2CCN(C(=O)C3CCN(C(=O)OC(C)(C)C)CC3)CC2)c(C(C)C)c1 (stereo not drawn) [Compound 65]
15,13000,N=C(N)c1cccc(CC(NS(=O)(=O)c2ccc3ccccc3c2)C(=O)N2CC(C(=O)N3CCNCC3)C2)c1 (stereo not drawn) [Compound 66]
16,3400,N=C(N)c1cccc(CC(NS(=O)(=O)c2ccc3ccccc3c2)C(=O)N2CC(C(=O)N3CCN(C(=N)N)CC3)C2)c1 (stereo not drawn) [Compound 67]
17,38,N=C(N)NCCC1CCN(C(=O)C(Cc2cccc(C(=N)N)c2)NC(=O)CNS(=O)(=O)c2ccc3c(c2)Cc2ccccc2C3)CC1 (stereo not drawn) [Compound 68]

# Continued, compound first:
row,Compound,Ki [nM]
1,"2,4,6-triisopropylphenylsulfonyl-Phe(3-Am)-iNip-DAE-H [Compound 3]",53
2,"2,4,6-triisopropylphenylsulfonyl-Phe(3Am)-iNip-NH—CH2—CH2-guanidino [Compound 34]",140
3,N=C(N)c1cccc(CC(NS(=O)(=O)c2ccc3c(c2)C(=O)c2ccccc2C3=O)C(=O)N2CCN(C(=O)CCN)CC2)c1 (stereo not drawn) [Compound 2],160
4,CC(C)c1cc(C(C)C)c(S(=O)(=O)NC(Cc2cccc(C(=N)N)c2)C(=O)N2CCN(C(=O)CCCNC(=N)N)CC2)c(C(C)C)c1 (stereo not drawn) [Compound 7],56
5,"N=C(N)c1cccc(C[C@H](NS(=O)(=O)c2ccc3cc4ccccc4cc3c2)C(=O)N2CCN(C(=O)CCN)CC2)c1 [Compound 10, anthracenesulfonyl-Phe(3-Am)-Pzd-β-Ala]",270
6,"N=C(N)NCCC(=O)N1CCN(C(=O)[C@H](Cc2cccc(C(=N)N)c2)NS(=O)(=O)c2ccc3cc4ccccc4cc3c2)CC1 [Compound 11, anthracenesulfonyl-Phe(3-Am)-Pzd-CO—CH2—CH2-guanidino]",44
7,N=C(N)c1cccc(CC(NS(=O)(=O)c2ccc3ccccc3c2)C(=O)N2CCN(C(=O)CCN)CC2)c1 (stereo not drawn) [Compound 12],830
8,N=C(N)c1cccc(CC(NS(=O)(=O)c2ccc3c(c2)CCCC3)C(=O)N2CCN(C(=O)CCN)CC2)c1 (stereo not drawn) [Compound 14],400
9,N=C(N)NCCC(=O)N1CCN(C(=O)C(Cc2cccc(C(=N)N)c2)NS(=O)(=O)c2ccc3c(c2)CCCC3)CC1 (stereo not drawn) [Compound 15],300
10,N=C(N)c1cccc(CC(NS(=O)(=O)c2cccc3c2CCCC3)C(=O)N2CCN(C(=O)CCN)CC2)c1 (stereo not drawn) [Compound 16],990
11,N=C(N)c1cccc(CC(NS(=O)(=O)c2ccc(C3CCCCC3)cc2)C(=O)N2CCN(C(=O)CCN)CC2)c1 (stereo not drawn) [Compound 17],140
12,N=C(N)c1cccc(CC(NS(=O)(=O)c2ccc(-c3ccccc3)cc2)C(=O)N2CCN(C(=O)CCN)CC2)c1 (stereo not drawn) [Compound 19],600
13,CC(C)(C)c1ccc(S(=O)(=O)NC(Cc2cccc(C(=N)N)c2)C(=O)N2CCN(C(=O)CCN)CC2)cc1 (stereo not drawn) [Compound 21],470
14,CC(C)(C)c1ccc(S(=O)(=O)NC(Cc2cccc(C(=N)N)c2)C(=O)N2CCN(C(=O)CCNC(=N)N)CC2)cc1 (stereo not drawn) [Compound 22],200
15,Cc1c(C)c(S(=O)(=O)NC(Cc2cccc(C(=N)N)c2)C(=O)N2CCN(C(=O)CCN)CC2)c(C)c2c1OC(C)(C)C2 (stereo not drawn) [Compound 23],3300
16,N=C(N)c1cccc(CC(NS(=O)(=O)Cc2ccc3ccccc3c2)C(=O)N2CCN(C(=O)CCN)CC2)c1 (stereo not drawn) [Compound 25],2400
17,N=C(N)NCCC(=O)N1CCN(C(=O)C(Cc2cccc(C(=N)N)c2)NS(=O)(=O)Cc2ccc3ccccc3c2)CC1 (stereo not drawn) [Compound 26],400
18,N=C(N)c1cccc(CC(NS(=O)(=O)c2ccc3c(c2)C(=O)c2ccccc2C3=O)C(=O)N2CCN(C(=O)C3CNC3)CC2)c1 (stereo not drawn) [Compound 27],460
19,N=C(N)NCCNC(=O)C1CCN(C(=O)C(Cc2cccc(C(=N)N)c2)NS(=O)(=O)c2ccc3c(c2)C(O)c2ccccc2C3O)CC1 (stereo not drawn) [Compound 32],9.8
20,N=C(N)CCNC(=O)C1CCN(C(=O)C(Cc2cccc(C(=N)N)c2)NS(=O)(=O)c2ccc3ccccc3c2)CC1 (stereo not drawn) [Compound 35],160
21,"N=C(N)c1cccc(C[C@H](NS(=O)(=O)c2ccc3ccccc3c2)C(=O)N2CCC(CCN)CC2)c1 [Compound 36, 2-Nas-Phe(3-Am) 4(aminoethyl)piperidide]",110
22,N=C(N)c1cccc(CC(NS(=O)(=O)c2cccc3ccccc23)C(=O)N2CCC(CCN)CC2)c1 (stereo not drawn) [Compound 39],170
23,N=C(N)c1cccc(CC(NC(=O)CNS(=O)(=O)c2ccc3ccccc3c2)C(=O)N2CCN(C(=O)CCN)CC2)c1 (stereo not drawn) [Compound 40],7200
24,N=C(N)NCCC1CCN(C(=O)C(Cc2cccc(C(=N)N)c2)NS(=O)(=O)c2cccc3ccccc23)CC1 (stereo not drawn) [Compound 41],74
25,N=C(N)c1cccc(CC(NS(=O)(=O)CCc2cccc3ccccc23)C(=O)N2CCC(CCN)CC2)c1 (stereo not drawn) [Compound 42],360
26,N=C(N)NCCC1CCN(C(=O)C(Cc2cccc(C(=N)N)c2)NS(=O)(=O)CCc2cccc3ccccc23)CC1 (stereo not drawn) [Compound 43],180

# Tested on: matriptase-expressing colon carcinoma cell line DLD-1
# Assay: Inhibition of invasive growth (Matrigel invasion assay)
# Type: cell-based
# Conditions: proHGF-stimulated; inhibitor 30 μM; 48 hours; FIG. 1
# From the text: A common test system for invasive growth at the cellular level is the Matrigel invasion assay. This entails cells being applied to an artificial extracellular matrix and investigation of how many cells migrate through the latter within a defined period.
# It is shown here by way of example for the matriptase inhibitors 37 and 54 that invasive growth is influenced and the migration of matriptase-expressing colon carcinoma cell line DLD-1 through Matrigel is inhibited:
# The wells of a ‘Transwell’ plate were each coated with 10 μg of Matrigel and 160 000 DLD-1 cells (Dexter et al, Cancer Research 39: 1020-1025 (1979)) in 100 μl of medium (RPMI 1640, with 2% Ultroser HY serum substituted) were applied to each, invasive growth was stimulated by adding ProHGF in 400 μl of medium with and without inhibitor (30 μM). After incubation at 37° C. and 5% CO2 for 48 hours, the cells which had migrated through the matrix were fixed, stained and photographed at 100× magnification.
row,Compound,inhibition of migration/invasion of DLD-1 cells through Matrigel
1,"N=C(N)NCCC1CCN(C(=O)[C@H](Cc2cccc(C(=N)N)c2)NS(=O)(=O)c2ccc3ccccc3c2)CC1.O=C(O)C(F)(F)F.O=C(O)C(F)(F)F [Compound 37, 2-Nas-Phe(3-Am) 4(guanidinoethyl)piperidide]",inhibited

# Tested on: matriptase-expressing prostate carcinoma cells (PC-3)
# Assay: Inhibition of proHGF-induced cell scattering (scatter assay)
# Type: cell-based
# Conditions: proHGF-stimulated; inhibitor 3 μM; 6 days; FIG. 2
# From the text: Because of its ability to induce the detachment of cells from an isolated assemblage and the dissemination of the cells, HGF is also referred to as scatter factor. This function can be detected at the cellular level with the aid of the so-called scatter assay. This entails the cells being seeded and their dissemination stimulated by the addition of HGF being recorded after a defined time. […] It is shown below by way of example for the matriptase inhibitors 37 and 54 that activation of proHGF by cellular matriptase is prevented and the scattering of proHGF-stimulated cells is reduced.
# For this purpose, 500 matriptase-expressing prostate carcinoma cells (PC-3) were seeded in each well of a 96-well plate and incubated (37° C., 5% CO2) in 100 μl of medium without fetal calf serum (Nut Mix. F-12, 2% Ultroser HY) overnight, and then the scattering was stimulated by adding proHGF with and without matriptase inhibitors (3 μM). After 6 days, the cells were fixed and stained, and representative sections were photographed at 100× magnification.
row,Compound,inhibition of proHGF-induced scattering of PC-3 cells
1,"N=C(N)NCCC1CCN(C(=O)[C@H](Cc2cccc(C(=N)N)c2)NS(=O)(=O)c2ccc3ccccc3c2)CC1.O=C(O)C(F)(F)F.O=C(O)C(F)(F)F [Compound 37, 2-Nas-Phe(3-Am) 4(guanidinoethyl)piperidide]",inhibit the proHGF-induced scattering of PC-3 cells
